Measurements: patent US7772210B2, “Cystitis treatment with high dose chondroitin sulfate” (Stellar Pharmaceuticals Inc., priority 2004, dated 2010)

Columns and labels:
[1] = tested on: patients diagnosed with cystitis; settings: 80 mgs and up to 200 mgs as a 40 mL instillation; cited from earlier work
[2] = Solubility of CS in water; format: physicochemical; settings: room temperature, sterile, distilled water
Source text: In accordance with the present invention, the unit dose of CS administered to the patient is at least 250 mgs. More desirably, the unit dose of CS is at least 300 mgs. Preferably, the unit dose is at least 350 mgs. More preferably, the unit dose is at least 400 mgs. The upper end of the acceptable unit dose is capped, in theory, only by the solubility of the given type of CS in the chosen aqueous vehicle, and by the volume of that vehicle used in therapy. At room temperature and in sterile, distilled water, the solubility of CS approaches 50%. Thus, the upper limit of the CS unit dose can be 500 mgs/mL of vehicle. In accordance with the present invention, the unit dose of CS is desirably formulated in a solution volume that is sufficient to expose the bladder surface to be treated, and is at least tolerable and more desirably comfortable for the patient. The upper limit for such volumes lies below the volume causing hydrodistention, which is about 250 mL in some patients. For adult patients, solution volumes are suitably from about 5 mL or 10 mL up to about 100 mL, e.g. up to about 75 mL, and preferably up to about 50 mL. In a specific embodiment of the invention, a solution volume of about 40 mL is utilized. Accordingly, the upper limit of the unit dose of CS administrable to the patient at this volume can approach 20,000 mgs.

solubility [2]: about 50%
Substance: chondroitin sulfate [CS]
relief of symptoms including frequency, pain and urgency [1]: provided relief from at least one symptom
